Experimental data from US4360525A, “Dibenzazepine derivatives, pharmaceutical compositions containing them, and methods of use” (Sandoz Ltd., priority 1979, dated 1982).

Assays:
[1] = test system: spontaneous motor activity; experiment: inhibition of spontaneous motor activity in mice (Caviezel and Baillod); type: in vivo; details: Mus musculus, po
Protocol: In particular, the compounds of the invention are useful as neuroleptic agents in the treatment of e.g. psychotic disturbances such as schizophrenia, as indicated in standard tests, e.g. by an inhibition of spontaneous motor activity in mice on p.o. administration of from about 1 to about 50 mg/kg animal body weight of the compounds in accordance with the principles of Caviezel and Baillod (Pharm. Acta Helv. (1958), 33, 465-484).

sleep/wake cycle = sleep/wake cycle in the rat (H. Kleinlogel); type: in vivo; details: 10 mg/kg p.o.
Protocol: Additionally, the compounds on administration to mice of from about 0.1 to about 10 mg/kg i.p. inhibit the hypermotility induced by 4,α-dimethyl-m-tyramine (H 77/77) in a test carried out according to the principles of J. Buus Lassen, Psychopharmacologia 37, 331-340 (1974). The compounds also increase the sleep phase II in the sleep/wake cycle in the rat carried out according to the principles of H. Kleinlogel et al, European J. Pharmacol. 33, 159-163, 1975, on administration of from […]. Results obtained are e.g. as follows:
Additionally the compounds of the invention are useful as sleep-inducing, sleep-promoting and sleep-prolonging agents, as indicated in standard tests. For example, in one test according to the principles of H. Kleinlogel, European J. Pharmacol. 33, 159-163 (1975) an increase in the sleep phase II and a decrease of the wake phase is observed after administration to rats of from 0.5 to 80 mg/kg p.o. animal body weight of the compounds.

| SMILES | ED50 [1] | Sleep phase II % of control (sleep/wake cycle) |
| --- | --- | --- |
| CN1CCC(N2Cc3cc(Cl)ccc3Sc3ccccc32)CC1 [Example 1, 2-Chloro-10-(1-methyl-piperidin-4-yl)-10,11-dihydro-dibenzo[b,f][1,4]thiazepine] | 26 mg/kg | 131 % of control |
| CN1CCN(C2=Nc3cc(Cl)ccc3Nc3ccccc32)CC1 [Clozapine] |  | 144 % of control |
| CSc1ccc2c(c1)N(CCC1CCCCN1C)c1ccccc1S2 (stereo not shown) [Thioridazine] | 26 mg/kg |  |
